# In PubChem BioAssay (NCI):
# Values joined by “and” are separate entries in the source; they are usually repeats but may differ in a detail not shown here. Equal values may be shown once.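 Results reflect a 48-hour exposure of cells in 96-well plates to compound at five concentrations. GI50: concentration for 50% inhibition of growth. TGI is the concentration that stops growth completely.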
# Legend:
# Assay in all cases: NCI tumour cell line growth inhibition, 48 h
# [1] = system: ACHN renal
# [2] = system: SK-MEL-5 melanoma
# [3] = system: HT29 colon
# [4] = system: MOLT-4 leukemia
# [5] = system: SNB-75 CNS
# [6] = system: EKVX NSCLC
# [7] = system: A549 NSCLC
# [8] = system: HOP-92 NSCLC
# [9] = system: K-562 leukemia
# [10] = system: HCT-116 colon
Structure (SMILES),GI50 [1] [µM],TGI [1],GI50 [2] [µM],TGI [2] [µM],GI50 [3] [µM],TGI [3] [µM],GI50 [4] [µM],TGI [4] [µM],GI50 [5] [µM],TGI [5] [µM],GI50 [6] [µM],TGI [6],GI50 [7] [µM],TGI [7],GI50 [8] [µM],TGI [8] [µM],GI50 [9] [µM],TGI [9],GI50 [10] [µM],TGI [10] [µM]
CN(C)CCN=Cc1c2ccccc2c(=O)n2c1oc1ccccc12,2.63,11.2 µM,2.89,16.1,4.56,19.4,4.2,> 100,7.55,22.2,6.76,21.4 µM,4.13,20.7 µM,12.3,44.1,11,> 100 µM,–,–
N#Cc1c(NC(=O)CN2CCOCC2)sc2c1CCCC2,> 25,> 25 µM,> 25,> 25,> 25,> 25,> 25,> 25,> 25,> 25,> 25,> 25 µM,> 25,> 25 µM,> 25,> 25,> 25,> 25 µM,> 25,> 25
C/C(=N/NC(=O)C(N)=O)C(CC(C(=O)Nc1ccccc1C)/C(C)=N\NC(=O)C(N)=O)C(=O)Nc1ccccc1C (centres undefined),–,> 100 µM,–,> 100,–,> 100,–,> 100,–,> 100,–,> 100 µM,–,> 100 µM,–,> 100,–,> 100 µM,–,–
O=C(O)CCC1(Br)CCCCC(Br)C1=O (centres undefined),–,> 100 µM,–,> 100,–,> 100,–,> 100,–,> 100,–,> 100 µM,–,> 100 µM,–,> 100,–,> 100 µM,–,> 100
COc1cc([C@@H]2c3cc4c(cc3[C@H](O)[C@H]3COC(=O)[C@H]23)OCO4)cc(OC)c1OC,< 0.01,> 100 µM and 50 µM,–,0.0477,< 0.01,–,< 0.01,–,< 0.005,–,–,> 100 µM and 50 µM,< 0.005,> 100 µM and 50 µM,< 0.01,–,< 0.01,> 100 µM and 50 µM,< 0.01,0.5
C=C1Oc2nc3ccccc3c(=O)n2C1(C)C,–,> 100 µM,–,> 100,–,> 100,–,> 100,–,–,–,> 100 µM,–,> 100 µM,–,> 100,–,> 100 µM,–,> 100
CC1=C([Se]CC(OC(=O)[C@@H](CO)NC(=O)OC(C)(C)C)C(=O)NC(C)(C)C)C(=O)c2ccccc2C1=O (some centres undefined),1.57,3.02 µM,1.59,2.97,2.3,4.74,–,–,1.3,2.6,1.76,3.71 µM,1.81,9.44 µM,1.88,3.43,–,–,1.46,2.79
N#Cc1cccc(NC(=O)c2oc3ccccc3c2-c2cnn(-c3ccccc3)c2)c1,> 500,> 500 µM,> 500,> 500,> 500,> 500,–,–,82,493,> 500,> 500 µM,> 500,> 500 µM,121,> 500,> 500,> 500 µM,> 500,> 500
